This passage reports T/C results from PubChem BioAssay AID256 (DTP/NCI, 2004).

Where “and” joins values, the source holds several entries; their conditions need not be identical. Equal values may be shown once. Toxic doses and inconclusive results are not listed.

The assay relates to CD2F1 mice, L1210 leukemia ip, survival T/C. Description: NCI In Vivo Anticancer Drug Screen. Data for tumor model L1210 Leukemia (intraperitoneal) in CD2F1 (CDF1) mice. As to conditions: higher = longer survival. Put shortly:
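Transplantable tumor in mice; compound-treated vs vehicle-treated groups. Read-out = treated/control ratio of the measured endpoint.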

Setting [1] is: endpoint: mean survival time, dose: 100.0 mg/kg/injection, schedule: Q04DX002 (ip), vehicle: saline with Tween-80.
[2] abbreviates: endpoint: mean survival time, dose: 200.0 mg/kg/injection, schedule: Q04DX002 (ip), vehicle: saline with Tween-80.
Where [3] appears, read: endpoint: mean survival time, dose: 100.0 mg/kg/injection, schedule: Q01DX009 (ip), vehicle: saline with Tween-80.
Setting [4] is: endpoint: mean survival time, dose: 200.0 mg/kg/injection, schedule: Q01DX009 (ip), vehicle: saline with Tween-80.
Where [5] appears, read: endpoint: mean survival time, dose: 400.0 mg/kg/injection, schedule: Q01DX009 (ip), vehicle: saline with Tween-80.
Setting [6] is: endpoint: mean survival time, dose: 25.0 mg/kg/injection, schedule: Q04DX002 (ip), vehicle: saline with Tween-80.
Setting [7] is: endpoint: mean survival time, dose: 50.0 mg/kg/injection, schedule: Q04DX002 (ip), vehicle: saline with Tween-80.
[8] abbreviates: endpoint: mean survival time, dose: 100.0 mg/kg/injection, schedule: Q04DX003 (ip), vehicle: saline with Tween-80.
Setting [9] is: endpoint: mean survival time, dose: 200.0 mg/kg/injection, schedule: Q04DX003 (ip), vehicle: saline with Tween-80.
The mark [10] stands for this setting: endpoint: mean survival time, dose: 400.0 mg/kg/injection, schedule: Q04DX003 (ip), vehicle: saline with Tween-80.

For `O=c1ccocc1O`, the T/C reads like this: (endpoint: mean survival time, dose: 200.0 mg/kg/injection, schedule: Q04DX002 (ip), vehicle: saline) 95 % of control; (endpoint: mean survival time, dose: 400.0 mg/kg/injection, schedule: Q04DX002 (ip), vehicle: saline) 92 % of control.
In the case of `O=C(C(=C(c1ccccc1)c1ccccc1)c1ccccc1)c1ccccc1`, the T/C is 93 % of control under setting [1]; 96 % of control under setting [2]; 93 % of control (endpoint: mean survival time, dose: 400.0 mg/kg/injection, schedule: Q04DX002 (ip), vehicle: saline with Tween-80).
For the molecule `COC(=O)c1ccccc1SSc1ccccc1C(=O)OC`, the T/C is, setting by setting: under setting [3], 93 % of control; under setting [4], 98 % of control; under setting [5], 93 % of control.
For `O=C(O)CCCOc1ccc(Cl)cc1Cl`, the T/C is 96 % of control (endpoint: mean survival time, dose: 100.0 mg/kg/injection, schedule: Q04DX003 (ip), vehicle: saline); 103 % of control (endpoint: mean survival time, dose: 200.0 mg/kg/injection, schedule: Q04DX003 (ip), vehicle: saline); 97 % of control (endpoint: mean survival time, dose: 400.0 mg/kg/injection, schedule: Q04DX003 (ip), vehicle: saline).
Regarding `CCCN(CCC)S(=O)(=O)c1ccc(NC(=O)OCc2ccccc2)cc1`, the T/C reads like this: (endpoint: mean survival time, dose: 100.0 mg/kg/injection, schedule: Q01DX001 (ip), vehicle: saline) 103 % of control; (endpoint: mean survival time, dose: 200.0 mg/kg/injection, schedule: Q01DX001 (ip), vehicle: saline) 103 % of control; (endpoint: mean survival time, dose: 400.0 mg/kg/injection, schedule: Q01DX001 (ip), vehicle: saline) 93 % of control.
On to `O=C(O)/C(O)=C(/O)C(=O)O.[NH-]C1CCCCC1[NH-].[Pt+2]`, for which the T/C is, setting by setting: (endpoint: median survival time, dose: 3.12 mg/kg/injection, schedule: Q04DX003 (ip), vehicle: saline) 97 % of control; (endpoint: median survival time, dose: 25.0 mg/kg/injection, schedule: Q04DX003 (ip), vehicle: saline) 113 % of control and 202 % of control; (endpoint: median survival time, dose: 50.0 mg/kg/injection, schedule: Q04DX003 (ip), vehicle: saline) 337 % of control; (endpoint: median survival time, dose: 200.0 mg/kg/injection, schedule: Q04DX003 (ip), vehicle: saline) 184 % of control.
For the molecule `CCOP(=O)(CC(=O)O)c1ccccc1` (stereo unspecified), the T/C is 96 % of control under setting [6], 100 % of control under setting [7] and 92 % of control under setting [1].
As for `CNC(=S)Nc1ncn[nH]1`, the T/C runs as follows: (endpoint: mean survival time, dose: 12.5 mg/kg/injection, schedule: Q01DX001 (ip), vehicle: carboxymethylcellulose (CMC)) 95 % of control; (endpoint: mean survival time, dose: 25.0 mg/kg/injection, schedule: Q01DX001 (ip), vehicle: carboxymethylcellulose (CMC)) 93 % of control; (endpoint: mean survival time, dose: 50.0 mg/kg/injection, schedule: Q01DX001 (ip), vehicle: carboxymethylcellulose (CMC)) 93 % of control; (endpoint: mean survival time, dose: 100.0 mg/kg/injection, schedule: Q01DX001 (ip), vehicle: carboxymethylcellulose (CMC)) 91 % of control; (endpoint: mean survival time, dose: 200.0 mg/kg/injection, schedule: Q01DX001 (ip), vehicle: carboxymethylcellulose (CMC)) 91 % of control.
For the molecule `O=C(/C=C/c1ccc(OCc2ccccc2)c(OCc2ccccc2)c1)OCc1ccccc1`, the T/C is, setting by setting: under setting [6], 102 % of control; under setting [7], 91 % of control; under setting [1], 95 % of control; under setting [2], 95 % of control.
Consider `CN(C)N=Nc1ccccc1C(=O)NCC(N)=O`, for which the T/C (endpoint: mean survival time, dose: 18.75 mg/kg/injection, schedule: Q01DX009 (ip), vehicle: Klucel (hydroxypropylcellulose) (HPC)) was 103 % of control and 107 % of control; the T/C (endpoint: mean survival time, dose: 37.5 mg/kg/injection, schedule: Q01DX009 (ip), vehicle: Klucel (hydroxypropylcellulose) (HPC)) was 115 % of control and 112 % of control.
As for `CN(C)C(=O)c1cc2ccccc2n1C`, the T/C is, setting by setting: (endpoint: mean survival time, dose: 100.0 mg/kg/injection, schedule: Q01DX001 (ip), vehicle: saline with Tween-80) 97 % of control; (endpoint: mean survival time, dose: 200.0 mg/kg/injection, schedule: Q01DX001 (ip), vehicle: saline with Tween-80) 98 % of control; (endpoint: mean survival time, dose: 400.0 mg/kg/injection, schedule: Q01DX001 (ip), vehicle: saline with Tween-80) 94 % of control.
As to `COc1ccc(CCNC(=O)Cc2ccccc2)cc1OC`, the T/C under setting [8] was 103 % of control, the T/C under setting [9] is 94 % of control and the T/C under setting [10] is 91 % of control.
In the case of `Brc1ccc([Si](c2ccccc2)(c2ccccc2)c2ccc(-c3ccccc3)cc2)cc1`, the T/C is 102 % of control (endpoint: mean survival time, dose: 100.0 mg/kg/injection, schedule: Q01DX009 (ip), vehicle: other); 96 % of control (endpoint: mean survival time, dose: 200.0 mg/kg/injection, schedule: Q01DX009 (ip), vehicle: other); 96 % of control (endpoint: mean survival time, dose: 400.0 mg/kg/injection, schedule: Q01DX009 (ip), vehicle: other).
Take `O=C1C=CC(=Nc2ccccc2)O1`: the T/C (endpoint: mean survival time, dose: 2.5 mg/kg/injection, schedule: Q01DX009 (ip), vehicle: saline with Tween-80) was 96 % of control; the T/C (endpoint: mean survival time, dose: 2.5 mg/kg/injection, schedule: Q04DX003 (ip), vehicle: saline with Tween-80) is 101 % of control; the T/C (endpoint: mean survival time, dose: 5.0 mg/kg/injection, schedule: Q01DX009 (ip), vehicle: saline with Tween-80) is 102 % of control; the T/C (endpoint: mean survival time, dose: 5.0 mg/kg/injection, schedule: Q04DX003 (ip), vehicle: saline with Tween-80) was 101 % of control; the T/C (endpoint: mean survival time, dose: 10.0 mg/kg/injection, schedule: Q01DX009 (ip), vehicle: saline with Tween-80) was 93 % of control; the T/C (endpoint: mean survival time, dose: 10.0 mg/kg/injection, schedule: Q04DX003 (ip), vehicle: saline with Tween-80) is 98 % of control.
Regarding `CC[N+]1(C)CCC(CN2c3ccccc3Sc3ccccc32)C1` (stereo unspecified), the T/C reads like this: under setting [3], 93 % of control; under setting [4], 98 % of control; under setting [5], 110 % of control.
As to `N#CC1CC2C=CC1C2` (stereo unspecified), the T/C is 98 % of control (endpoint: mean survival time, dose: 5.0 mg/kg/injection, schedule: Q01DX009 (ip), vehicle: saline); 95 % of control (endpoint: mean survival time, dose: 5.0 mg/kg/injection, schedule: Q04DX003 (ip), vehicle: saline); 98 % of control (endpoint: mean survival time, dose: 10.0 mg/kg/injection, schedule: Q01DX009 (ip), vehicle: saline); 97 % of control (endpoint: mean survival time, dose: 10.0 mg/kg/injection, schedule: Q04DX003 (ip), vehicle: saline); 87 % of control (endpoint: mean survival time, dose: 20.0 mg/kg/injection, schedule: Q01DX009 (ip), vehicle: saline); 100 % of control (endpoint: mean survival time, dose: 20.0 mg/kg/injection, schedule: Q04DX003 (ip), vehicle: saline).
On to `CC(C)C(Br)C(=O)NCC(=O)NCC(=O)O` (stereo unspecified), for which the T/C reads like this: under setting [8], 101 % of control; under setting [9], 100 % of control; under setting [10], 92 % of control.
Turning to `CCOC(=O)C1(C(=O)OCC)CCC(O)N1C(=O)Cc1ccccc1[N+](=O)[O-]` (stereo unspecified), the T/C runs as follows: (endpoint: mean survival time, dose: 100.0 mg/kg/injection, schedule: Q01DX009 (ip), vehicle: Klucel (hydroxypropylcellulose) (HPC)) 101 % of control; (endpoint: mean survival time, dose: 200.0 mg/kg/injection, schedule: Q01DX009 (ip), vehicle: Klucel (hydroxypropylcellulose) (HPC)) 97 % of control.
For the molecule `c1cnc2c(c1)Nc1cc3ccccc3cc1N2`, the T/C reads like this: (endpoint: mean survival time, dose: 100.0 mg/kg/injection, schedule: Q04DX002 (ip), vehicle: saline + alcohol) 100 % of control; (endpoint: mean survival time, dose: 200.0 mg/kg/injection, schedule: Q04DX002 (ip), vehicle: saline + alcohol) 89 % of control; (endpoint: mean survival time, dose: 400.0 mg/kg/injection, schedule: Q04DX002 (ip), vehicle: saline + alcohol) 89 % of control.
Turning to `CC(=O)OC(CCl)C(Cl)CCl` (stereo unspecified), the T/C runs as follows: (endpoint: mean survival time, dose: 12.5 mg/kg/injection, schedule: Q04DX002 (ip), vehicle: saline with Tween-80) 103 % of control; under setting [6], 106 % of control; under setting [7], 92 % of control; (endpoint: mean survival time, dose: 100.0 mg/kg/injection, schedule: Q01DX001 (ip), vehicle: saline sonified) 95 % of control; (endpoint: mean survival time, dose: 200.0 mg/kg/injection, schedule: Q01DX001 (ip), vehicle: saline sonified) 95 % of control; (endpoint: mean survival time, dose: 400.0 mg/kg/injection, schedule: Q01DX001 (ip), vehicle: saline sonified) 108 % of control.
On to `COc1cc(NCCCCCCCNC(C)C)c2nccc(C)c2c1`, for which the T/C is, setting by setting: (endpoint: median survival time, dose: 3.12 mg/kg/injection, schedule: Q01DX009 (ip), vehicle: saline) 98 % of control; (endpoint: median survival time, dose: 6.25 mg/kg/injection, schedule: Q01DX009 (ip), vehicle: saline) 102 % of control; (endpoint: median survival time, dose: 12.5 mg/kg/injection, schedule: Q01DX009 (ip), vehicle: saline) 97 % of control.
`O=C(NNc1ccccc1OCc1ccccc1)C(F)(F)F`: the T/C runs as follows: under setting [8], 102 % of control; under setting [9], 103 % of control; under setting [10], 103 % of control.
